Measured values as given in the supplement of paper PMC13380429.

Columns and labels:
[1] = tested on: A549-ACE2 infected with SARS-CoV-2; assay: cell count relative to DMSO; higher = less toxic; settings: 24 h
Caco-2 [2] = assay: cell viability relative to DMSO; higher = less toxic; settings: 72 h
Calu-3 [3] = assay: as above; settings: 72 h
HepG2 [4] = assay: as above; settings: 72 h
U2OS [5] = assay: as above; settings: 72 h
Vero E6 [6] = assay: as above; settings: 72 h
[7] = tested on: A549-ACE2 infected with SARS-CoV-2; assay: SARS-CoV-2 infection rate relative to DMSO; higher = more infection; settings: 24 h
A549-ACE2 [8] = assay: phospholipidosis EC50; higher = less potent phospholipidosis inducer
A549-ACE2 [9] = assay: drug-induced phospholipidosis relative to tamoxifen; higher = more phospholipidosis
[10] = tested on: A549-ACE2 infected with SARS-CoV-2; assay: morphology score (similarity to uninfected cells); higher = more like uninfected cells; settings: 24 h
Calu-3 [11] = assay: relative viability EC50 (midpoint between 100% and the lowest measured viability); higher = less toxic; settings: 72 h
HepG2 [12] = assay: as above; settings: 72 h
U2OS [13] = assay: as above; settings: 72 h
Caco-2 [14] = assay: drug sensitivity score (DSS) for viability; higher = more toxic; extreme values may be limits of the assay; settings: 72 h
Calu-3 [15] = assay: as above; settings: 72 h
HepG2 [16] = assay: as above; settings: 72 h
U2OS [17] = assay: as above; settings: 72 h
Vero E6 [18] = assay: as above; settings: 72 h
Caco-2 [19] = assay: relative viability EC50 (midpoint between 100% and the lowest measured viability); higher = less toxic; settings: 72 h
Vero E6 [20] = assay: as above; settings: 72 h

OCCN1CCN(CCCN2c3ccccc3Sc3ccc(C(F)(F)F)cc32)CC1 [fluphenazine]
Settings	SARS-CoV-2 infection rate [%]	cell count [%]	cell viability [%]	morphology score	phospholipidosis EC50 [µM]
A549-ACE2 [8], 24 h	–	–	–	–	3.49
A549-ACE2 [8], 48 h	–	–	–	–	5.08
A549-ACE2 [8], 72 h	–	–	–	–	6.62
Caco-2 [2], 1 nM	–	–	101	–	–
Caco-2 [2], 10 nM	–	–	100	–	–
Caco-2 [2], 100 nM	–	–	88.2	–	–
Caco-2 [2], 1000 nM	–	–	85.2	–	–
Caco-2 [2], 10000 nM	–	–	64.4	–	–
Calu-3 [3], 1 nM	–	–	101	–	–
Calu-3 [3], 10 nM	–	–	110	–	–
Calu-3 [3], 100 nM	–	–	96.8	–	–
Calu-3 [3], 1000 nM	–	–	98.1	–	–
Calu-3 [3], 10000 nM	–	–	22.4	–	–
HepG2 [4], 1 nM	–	–	102	–	–
HepG2 [4], 10 nM	–	–	90.9	–	–
HepG2 [4], 100 nM	–	–	95.9	–	–
HepG2 [4], 1000 nM	–	–	96.1	–	–
HepG2 [4], 10000 nM	–	–	49.4	–	–
U2OS [5], 1 nM	–	–	101	–	–
U2OS [5], 10 nM	–	–	101	–	–
U2OS [5], 100 nM	–	–	94.7	–	–
U2OS [5], 1000 nM	–	–	92.6	–	–
U2OS [5], 10000 nM	–	–	84.2	–	–
Vero E6 [6], 1 nM	–	–	103	–	–
Vero E6 [6], 10 nM	–	–	100	–	–
Vero E6 [6], 100 nM	–	–	101	–	–
Vero E6 [6], 1000 nM	–	–	95.5	–	–
Vero E6 [6], 10000 nM	–	–	52	–	–
[1], 0.1 µM	–	103	–	–	–
[1], 0.3 µM	–	99	–	–	–
[1], 1 µM	–	90	–	–	–
[1], 3 µM	–	122	–	–	–
[7], 0.1 µM	97	–	–	–	–
[7], 0.3 µM	99	–	–	–	–
[7], 1 µM	83	–	–	–	–
[7], 3 µM	44	–	–	–	–
[10], 0.1 µM	–	–	–	0.13	–
[10], 0.3 µM	–	–	–	0.02	–
[10], 1 µM	–	–	–	0.49	–
[10], 3 µM	–	–	–	0.75	–

drug-induced phospholipidosis [%], A549-ACE2 [9]
Settings	0.3 µM	0.833333 µM	3.33333 µM	6.66667 µM	10 µM	30 µM
24 h	3.92	11.1	44.3	81.8	103	78.9
48 h	2.29	10	32.4	91.3	114	–
72 h	4.14	10.7	24.3	80.2	116	–

Settings	drug sensitivity score	relative viability EC50 [µM]
Caco-2 [14]	3.4	–
Calu-3 [11]	–	2.99
Calu-3 [15]	4.5	–
HepG2 [12]	–	2.53
HepG2 [16]	3.3	–
U2OS [13]	–	> 10
U2OS [17]	0.5	–
Vero E6 [18]	3.2	–

CC(C)C[C@H](NC(=O)CNC(=O)c1cc(Cl)ccc1Cl)B(O)O [ixazomib]
Settings	SARS-CoV-2 infection rate, [7] [%]	cell count, [1] [%]	cell viability, Caco-2 [2] [%]	cell viability, Calu-3 [3] [%]	cell viability, HepG2 [4] [%]	cell viability, U2OS [5] [%]	cell viability, Vero E6 [6] [%]	morphology score, [10]
1 nM	–	–	86.9	90	107	95.9	97.4	–
10 nM	–	–	102	99	105	93.4	99.3	–
0.1 µM	99	90	–	–	–	–	–	0.03
100 nM	–	–	24.4	35.8	99.5	84.5	78.5	–
0.3 µM	98	80	–	–	–	–	–	0.25
1 µM	64	72	–	–	–	–	–	0.26
1000 nM	–	–	4.7	5.8	7.7	1.3	11.5	–
3 µM	46	59	–	–	–	–	–	0.26
10000 nM	–	–	7.3	5.7	0.6	-0.1	3.7	–

A549-ACE2 [9], 0.3 µM
Settings	drug-induced phospholipidosis [%]
24 h	-5.63
48 h	-3.87
72 h	-1.4

Settings	drug sensitivity score	relative viability EC50 [µM]
Caco-2 [14]	25.9	–
Caco-2 [19]	–	0.0588
Calu-3 [11]	–	0.0714
Calu-3 [15]	24.6	–
HepG2 [12]	–	0.383
HepG2 [16]	16.8	–
U2OS [13]	–	0.197
U2OS [17]	20.5	–
Vero E6 [18]	18.9	–
Vero E6 [20]	–	0.218

O=C(NC1CCN(CCCCC2(C(=O)NCC(F)(F)F)c3ccccc3-c3ccccc32)CC1)c1ccccc1-c1ccc(C(F)(F)F)cc1 [lomitapide]
Settings	SARS-CoV-2 infection rate [%]	cell count [%]	cell viability [%]	morphology score	phospholipidosis EC50 [µM]
A549-ACE2 [8], 24 h	–	–	–	–	0.898
A549-ACE2 [8], 48 h	–	–	–	–	1.8
A549-ACE2 [8], 72 h	–	–	–	–	2.5
Caco-2 [2], 1 nM	–	–	101	–	–
Caco-2 [2], 10 nM	–	–	103	–	–
Caco-2 [2], 100 nM	–	–	103	–	–
Caco-2 [2], 1000 nM	–	–	103	–	–
Caco-2 [2], 10000 nM	–	–	11.8	–	–
Calu-3 [3], 1 nM	–	–	101	–	–
Calu-3 [3], 10 nM	–	–	100	–	–
Calu-3 [3], 100 nM	–	–	98.4	–	–
Calu-3 [3], 1000 nM	–	–	109	–	–
Calu-3 [3], 10000 nM	–	–	1.2	–	–
HepG2 [4], 1 nM	–	–	108	–	–
HepG2 [4], 10 nM	–	–	106	–	–
HepG2 [4], 100 nM	–	–	106	–	–
HepG2 [4], 1000 nM	–	–	100	–	–
HepG2 [4], 10000 nM	–	–	-0.5	–	–
U2OS [5], 1 nM	–	–	101	–	–
U2OS [5], 10 nM	–	–	110	–	–
U2OS [5], 100 nM	–	–	104	–	–
U2OS [5], 1000 nM	–	–	106	–	–
U2OS [5], 10000 nM	–	–	1.2	–	–
Vero E6 [6], 1 nM	–	–	102	–	–
Vero E6 [6], 10 nM	–	–	104	–	–
Vero E6 [6], 100 nM	–	–	96	–	–
Vero E6 [6], 1000 nM	–	–	97.8	–	–
Vero E6 [6], 10000 nM	–	–	-0.6	–	–
[1], 0.1 µM	–	96	–	–	–
[1], 0.3 µM	–	104	–	–	–
[1], 1 µM	–	108	–	–	–
[1], 3 µM	–	119	–	–	–
[7], 0.1 µM	98	–	–	–	–
[7], 0.3 µM	93	–	–	–	–
[7], 1 µM	72	–	–	–	–
[7], 3 µM	12	–	–	–	–
[10], 0.1 µM	–	–	–	-0.14	–
[10], 0.3 µM	–	–	–	0.12	–
[10], 1 µM	–	–	–	0.6	–
[10], 3 µM	–	–	–	0.91	–

drug-induced phospholipidosis [%], A549-ACE2 [9]
Settings	0.3 µM	0.833333 µM	3.33333 µM	6.66667 µM	10 µM	30 µM
24 h	11.9	29.7	81	81.2	40.9	49.8
48 h	15.5	36	91.1	108	–	–
72 h	12.7	28.5	83.5	131	–	–

Settings	drug sensitivity score	relative viability EC50 [µM]
Caco-2 [14]	4.6	–
Caco-2 [19]	–	3.38
Calu-3 [11]	–	3.61
Calu-3 [15]	4.9	–
HepG2 [12]	–	3.14
HepG2 [16]	5.6	–
U2OS [13]	–	3.46
U2OS [17]	5.1	–
Vero E6 [18]	5.9	–
Vero E6 [20]	–	2.97
